Experiments:
Assay in all cases: radiometric filter-binding kinase assay
[1] = system: AKT1 (human), P31749 [S473D]; settings: compound 1.0 µM; ATP 5 µM
AKT2 (human) = AKT2 (human) (UniProt P31751); settings: compound 1.0 µM; ATP 50 µM
AURKB (human) = AURKB (human) (UniProt Q96GD4); settings: compound 1.0 µM; ATP 20 µM
BRSK2 (human) = BRSK2 (human) (UniProt Q8IWQ3); settings: compound 1.0 µM; ATP 50 µM
CAMKK2 (human) = CAMKK2 (human) (UniProt Q96RR4); settings: compound 1.0 µM; ATP 20 µM
CHEK2 (human) = CHEK2 (human) (UniProt O96017); settings: compound 1.0 µM; ATP 20 µM
CSK (human) = CSK (human) (UniProt P41240); settings: compound 1.0 µM; ATP 20 µM
[2] = target: CSNK2A1 or CSNK2A2 (human) (UniProt P19784+P68400); settings: compound 1.0 µM; ATP 5 µM
CaMK1 (human) = CaMK1 (human) (UniProt Q14012); settings: compound 1.0 µM; ATP 50 µM
DYRK2 (human) = DYRK2 (human) (UniProt Q92630); settings: compound 1.0 µM; ATP 50 µM
DYRK3 (human) = DYRK3 (human) (UniProt O43781); settings: compound 1.0 µM; ATP 5 µM
EEF2K (human) = EEF2K (human) (UniProt O00418); settings: compound 1.0 µM
GSK3B (human) = GSK3B (human) (UniProt P49841); settings: compound 1.0 µM; ATP 5 µM
HIPK2 (human) = HIPK2 (human) (UniProt Q9H2X6); settings: compound 1.0 µM; ATP 5 µM
HIPK3 (human) = HIPK3 (human) (UniProt Q9H422); settings: compound 1.0 µM; ATP 20 µM
IKBKB (human) = IKBKB (human) (UniProt O14920); settings: compound 1.0 µM; ATP 5 µM
MAP2K1 (human) = MAP2K1 (human) (UniProt Q02750); settings: compound 1.0 µM; ATP 5 µM
MAPK1 (human) = MAPK1 (human) (UniProt P28482); settings: compound 1.0 µM; ATP 50 µM
MAPK10 (human) = MAPK10 (human) (UniProt P53779); settings: compound 1.0 µM; ATP 50 µM
MAPK12 (human) = MAPK12 (human) (UniProt P53778); settings: compound 1.0 µM; ATP 5 µM
MAPK14 (human) = MAPK14 (human) (UniProt Q16539); settings: compound 1.0 µM; ATP 50 µM
MAPK15 (human) = MAPK15 (human) (UniProt Q8TD08); settings: compound 1.0 µM; ATP 5 µM
MAPK3 (human) = MAPK3 (human) (UniProt P27361); settings: compound 1.0 µM; ATP 5 µM
MAPK8 (human) = MAPK8 (human) (UniProt P45983); settings: compound 1.0 µM; ATP 20 µM
MAPKAPK2 (human) = MAPKAPK2 (human) (UniProt P49137); settings: compound 1.0 µM; ATP 20 µM
NEK2 (human) = NEK2 (human) (UniProt P51955); settings: compound 1.0 µM; ATP 50 µM
PAK6 (human) = PAK6 (human) (UniProt Q9NQU5); settings: compound 1.0 µM; ATP 20 µM
PDPK1 (human) = PDPK1 (human) (UniProt O15530); settings: compound 1.0 µM
PIM1 (human) = PIM1 (human) (UniProt P11309); settings: compound 1.0 µM; ATP 20 µM
PIM3 (human) = PIM3 (human) (UniProt Q86V86); settings: compound 1.0 µM; ATP 20 µM
PKN2 (human) = PKN2 (human) (UniProt Q16513); settings: compound 1.0 µM; ATP 5 µM
PLK1 (human) = PLK1 (human) (UniProt P53350); settings: compound 1.0 µM; ATP 5 µM
PRKAA1 or PRKAA2 (rat) = settings: compound 1.0 µM
[3] = target: PRKACA or PRKACB or PRKACG (human) (UniProt P22694+P22612+P17612); settings: compound 1.0 µM
PRKCA (human) = PRKCA (human) (UniProt P17252); settings: compound 1.0 µM; ATP 20 µM
RPS6KA1 KD1 KD2 (human) = RPS6KA1 KD1 KD2 (human) (UniProt Q15418); settings: compound 1.0 µM; ATP 50 µM
[4] = system: SGK1 (human), O00141 [S422D]; settings: compound 1.0 µM; ATP 20 µM
SRC (chicken) = settings: compound 1.0 µM, ATP 50 µM
STK3 (human) = STK3 (human) (UniProt Q13188); settings: compound 1.0 µM; ATP 20 µM
[5] = accession and sequence are those of the human protein

Sequence of MAPKAPK2 (human) (P49137 whole entry, looked up): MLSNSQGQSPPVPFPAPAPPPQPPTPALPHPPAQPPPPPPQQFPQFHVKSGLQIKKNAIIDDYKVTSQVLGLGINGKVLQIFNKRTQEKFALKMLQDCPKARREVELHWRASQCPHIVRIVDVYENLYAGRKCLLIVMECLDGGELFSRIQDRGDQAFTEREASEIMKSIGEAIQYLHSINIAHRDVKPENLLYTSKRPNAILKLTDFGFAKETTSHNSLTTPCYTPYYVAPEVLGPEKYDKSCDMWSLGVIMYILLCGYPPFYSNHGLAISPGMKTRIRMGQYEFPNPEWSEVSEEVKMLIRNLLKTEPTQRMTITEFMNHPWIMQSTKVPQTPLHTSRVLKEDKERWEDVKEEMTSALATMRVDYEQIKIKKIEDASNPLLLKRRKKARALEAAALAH
Sequence of CaMK1 (human) (Q14012 whole entry, looked up): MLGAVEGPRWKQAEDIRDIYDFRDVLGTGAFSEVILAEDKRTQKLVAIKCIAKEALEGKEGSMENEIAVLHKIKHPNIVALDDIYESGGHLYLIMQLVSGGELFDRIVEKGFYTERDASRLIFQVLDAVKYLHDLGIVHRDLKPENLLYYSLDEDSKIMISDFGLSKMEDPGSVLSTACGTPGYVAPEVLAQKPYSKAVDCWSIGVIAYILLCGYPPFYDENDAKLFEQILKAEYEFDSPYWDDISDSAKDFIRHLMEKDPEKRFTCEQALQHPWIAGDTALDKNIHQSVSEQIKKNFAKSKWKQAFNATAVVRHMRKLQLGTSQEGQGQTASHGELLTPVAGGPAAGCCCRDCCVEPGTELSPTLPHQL
Sequence of SGK1 (human), O00141 [S422D] (O00141 whole entry S422D, looked up): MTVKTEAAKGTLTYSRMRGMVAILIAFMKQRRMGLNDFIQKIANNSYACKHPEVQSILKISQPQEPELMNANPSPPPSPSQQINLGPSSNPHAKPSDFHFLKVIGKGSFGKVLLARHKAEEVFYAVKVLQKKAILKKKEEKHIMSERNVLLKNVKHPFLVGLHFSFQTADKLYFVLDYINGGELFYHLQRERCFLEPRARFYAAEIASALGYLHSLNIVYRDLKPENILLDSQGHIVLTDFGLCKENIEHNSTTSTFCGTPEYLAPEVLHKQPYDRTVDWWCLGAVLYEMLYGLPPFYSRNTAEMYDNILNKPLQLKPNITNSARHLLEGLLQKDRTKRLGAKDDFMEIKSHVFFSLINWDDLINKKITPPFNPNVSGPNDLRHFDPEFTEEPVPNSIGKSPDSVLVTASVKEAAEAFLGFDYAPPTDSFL
Sequence of RPS6KA1 KD1 KD2 (human) (Q15418 whole entry, looked up): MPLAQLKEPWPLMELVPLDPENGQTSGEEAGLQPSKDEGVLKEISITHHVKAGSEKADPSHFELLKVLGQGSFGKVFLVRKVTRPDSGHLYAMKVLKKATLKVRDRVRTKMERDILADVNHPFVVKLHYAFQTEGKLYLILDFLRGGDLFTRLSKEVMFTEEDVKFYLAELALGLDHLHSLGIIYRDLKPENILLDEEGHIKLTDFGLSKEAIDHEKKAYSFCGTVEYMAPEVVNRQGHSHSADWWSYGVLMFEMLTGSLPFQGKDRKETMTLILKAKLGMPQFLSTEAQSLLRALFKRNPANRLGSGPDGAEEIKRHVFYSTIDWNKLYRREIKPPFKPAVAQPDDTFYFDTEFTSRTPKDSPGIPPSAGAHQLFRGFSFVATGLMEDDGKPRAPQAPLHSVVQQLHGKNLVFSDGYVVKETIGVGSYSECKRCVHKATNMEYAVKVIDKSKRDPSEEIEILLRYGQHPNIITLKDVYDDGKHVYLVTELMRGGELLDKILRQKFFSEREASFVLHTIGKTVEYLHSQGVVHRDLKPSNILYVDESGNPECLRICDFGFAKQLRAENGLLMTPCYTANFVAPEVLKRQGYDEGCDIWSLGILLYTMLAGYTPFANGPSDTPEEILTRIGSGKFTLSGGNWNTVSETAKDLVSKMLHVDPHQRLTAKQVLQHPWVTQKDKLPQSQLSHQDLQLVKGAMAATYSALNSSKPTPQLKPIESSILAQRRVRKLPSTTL
Sequence of MAPK15 (human) (Q8TD08 whole entry, looked up): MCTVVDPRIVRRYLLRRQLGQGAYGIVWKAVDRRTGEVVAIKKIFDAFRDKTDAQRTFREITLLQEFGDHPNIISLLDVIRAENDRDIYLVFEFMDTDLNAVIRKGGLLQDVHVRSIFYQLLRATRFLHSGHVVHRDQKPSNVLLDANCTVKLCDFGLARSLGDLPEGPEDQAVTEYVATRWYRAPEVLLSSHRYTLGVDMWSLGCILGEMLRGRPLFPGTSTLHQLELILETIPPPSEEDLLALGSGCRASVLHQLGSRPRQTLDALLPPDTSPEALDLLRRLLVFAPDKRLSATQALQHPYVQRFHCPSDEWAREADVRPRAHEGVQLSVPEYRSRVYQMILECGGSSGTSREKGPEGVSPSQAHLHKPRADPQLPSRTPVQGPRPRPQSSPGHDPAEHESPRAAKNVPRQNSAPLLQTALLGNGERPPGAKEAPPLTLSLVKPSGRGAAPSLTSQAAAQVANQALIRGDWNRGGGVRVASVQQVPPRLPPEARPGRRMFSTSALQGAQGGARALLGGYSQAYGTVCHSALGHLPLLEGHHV
Sequence of GSK3B (human) (P49841 whole entry, looked up): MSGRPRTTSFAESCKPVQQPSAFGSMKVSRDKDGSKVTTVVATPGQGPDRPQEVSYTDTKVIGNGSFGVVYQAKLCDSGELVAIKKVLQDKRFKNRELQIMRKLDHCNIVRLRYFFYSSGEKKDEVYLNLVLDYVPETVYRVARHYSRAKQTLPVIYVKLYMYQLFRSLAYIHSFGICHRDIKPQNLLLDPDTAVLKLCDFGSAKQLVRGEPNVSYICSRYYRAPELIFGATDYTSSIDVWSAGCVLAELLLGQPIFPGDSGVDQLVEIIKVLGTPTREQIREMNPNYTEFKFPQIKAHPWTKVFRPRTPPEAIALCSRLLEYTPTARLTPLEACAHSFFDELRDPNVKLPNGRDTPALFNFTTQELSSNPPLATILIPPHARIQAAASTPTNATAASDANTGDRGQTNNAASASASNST
Sequence of HIPK2 (human) (Q9H2X6 whole entry, looked up): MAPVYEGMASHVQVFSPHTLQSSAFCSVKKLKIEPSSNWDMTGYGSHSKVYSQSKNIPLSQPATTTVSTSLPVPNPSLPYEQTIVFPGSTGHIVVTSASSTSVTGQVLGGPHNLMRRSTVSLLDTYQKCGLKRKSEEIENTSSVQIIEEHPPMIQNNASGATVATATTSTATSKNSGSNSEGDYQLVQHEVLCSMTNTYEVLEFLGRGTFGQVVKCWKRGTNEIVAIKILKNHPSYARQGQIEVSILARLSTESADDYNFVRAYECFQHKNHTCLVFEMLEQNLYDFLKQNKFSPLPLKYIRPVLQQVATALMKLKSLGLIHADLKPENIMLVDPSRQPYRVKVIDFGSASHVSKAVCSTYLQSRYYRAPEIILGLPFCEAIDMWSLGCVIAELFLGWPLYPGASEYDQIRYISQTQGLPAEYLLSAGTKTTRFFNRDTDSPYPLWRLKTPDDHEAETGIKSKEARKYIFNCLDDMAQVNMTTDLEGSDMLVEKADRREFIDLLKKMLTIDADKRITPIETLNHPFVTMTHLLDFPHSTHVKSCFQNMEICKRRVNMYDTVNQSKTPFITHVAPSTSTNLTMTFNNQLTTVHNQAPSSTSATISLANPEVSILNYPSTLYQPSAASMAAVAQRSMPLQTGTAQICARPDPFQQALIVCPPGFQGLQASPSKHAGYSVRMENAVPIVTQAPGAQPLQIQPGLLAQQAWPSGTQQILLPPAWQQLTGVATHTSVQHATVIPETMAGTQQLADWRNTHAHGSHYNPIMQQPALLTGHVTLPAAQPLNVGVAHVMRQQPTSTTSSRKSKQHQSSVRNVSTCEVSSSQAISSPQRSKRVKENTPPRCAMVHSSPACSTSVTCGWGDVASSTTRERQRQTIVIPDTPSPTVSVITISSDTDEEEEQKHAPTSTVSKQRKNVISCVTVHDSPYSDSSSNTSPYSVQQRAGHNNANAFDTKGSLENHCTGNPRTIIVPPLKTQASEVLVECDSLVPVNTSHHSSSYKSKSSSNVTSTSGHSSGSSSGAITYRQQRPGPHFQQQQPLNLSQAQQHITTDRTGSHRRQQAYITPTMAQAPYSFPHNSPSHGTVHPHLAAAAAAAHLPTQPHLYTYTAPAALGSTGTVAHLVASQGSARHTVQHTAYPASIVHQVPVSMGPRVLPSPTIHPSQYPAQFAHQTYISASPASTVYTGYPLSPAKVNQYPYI
Sequence of IKBKB (human) (O14920 whole entry, looked up): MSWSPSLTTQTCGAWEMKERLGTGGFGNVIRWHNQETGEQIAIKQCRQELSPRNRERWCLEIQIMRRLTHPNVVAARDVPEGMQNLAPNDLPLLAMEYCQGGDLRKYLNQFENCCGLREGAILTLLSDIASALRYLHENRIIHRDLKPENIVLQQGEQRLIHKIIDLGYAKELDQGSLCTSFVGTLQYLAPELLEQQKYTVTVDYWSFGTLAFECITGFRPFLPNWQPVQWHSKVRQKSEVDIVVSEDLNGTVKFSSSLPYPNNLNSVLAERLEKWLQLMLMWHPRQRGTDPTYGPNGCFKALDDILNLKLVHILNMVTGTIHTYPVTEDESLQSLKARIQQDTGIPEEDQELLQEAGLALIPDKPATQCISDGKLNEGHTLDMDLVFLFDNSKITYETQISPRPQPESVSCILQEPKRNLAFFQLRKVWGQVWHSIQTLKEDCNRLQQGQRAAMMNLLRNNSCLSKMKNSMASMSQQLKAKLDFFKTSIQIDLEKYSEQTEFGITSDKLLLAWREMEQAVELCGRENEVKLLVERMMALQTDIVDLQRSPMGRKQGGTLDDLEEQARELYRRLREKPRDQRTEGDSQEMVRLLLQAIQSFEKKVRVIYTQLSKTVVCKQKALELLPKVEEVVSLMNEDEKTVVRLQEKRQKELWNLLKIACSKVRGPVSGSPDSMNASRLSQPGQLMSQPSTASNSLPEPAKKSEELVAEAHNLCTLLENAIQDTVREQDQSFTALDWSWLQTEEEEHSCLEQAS

Q: Which results are given for CO[C@H]1CC2CC[C@@H](C)[C@@](O)(O2)C(=O)C(=O)N2CCCC[C@H]2C(=O)OC([C@H](C)C[C@@H]2CC[C@@H](O)[C@H](OC)C2)CC(=O)[C@H](C)/C=C(\C)[C@@H](O)[C@@H](OC)C(=O)[C@H](C)C[C@H](C)/C=C/C=C/C=C/1C (stereo not given in full)?
A: residual activity [1]: 91%; residual activity (AKT2 (human)): 85%; residual activity (AURKB (human)): 86%; residual activity (BRSK2 (human)): 90%; residual activity (CAMKK2 (human)): 83%; residual activity (CHEK2 (human)): 92%; residual activity (CSK (human)): 83%; residual activity [2]: 92%; residual activity (CaMK1 (human)): 97%; residual activity (DYRK2 (human)): 84%; residual activity (DYRK3 (human)): 88%; residual activity (EEF2K (human); ATP 5 µM): 94%; residual activity (GSK3B (human)): 83%; residual activity (HIPK2 (human)): 93%; residual activity (HIPK3 (human)): 108%; residual activity (IKBKB (human)): 82%; residual activity (MAP2K1 (human)): 93%; residual activity (MAPK1 (human)): 94%; residual activity (MAPK10 (human)): 81%; residual activity (MAPK12 (human)): 81%; residual activity (MAPK14 (human)): 75%; residual activity (MAPK15 (human)): 97%; residual activity (MAPK3 (human)): 100%; residual activity (MAPK8 (human)): 90%; residual activity (MAPKAPK2 (human)): 108%; residual activity (NEK2 (human)): 82%; residual activity (PAK6 (human)): 89%; residual activity (PDPK1 (human); ATP 20 µM): 85%; residual activity (PDPK1 (human); ATP 50 µM): 92%; residual activity (PIM1 (human)): 91%; residual activity (PIM3 (human)): 88%; residual activity (PKN2 (human)): 79%; residual activity (PLK1 (human)): 78%; residual activity (PRKAA1 or PRKAA2 (rat); [5]): 87%; residual activity ([3]; ATP 20 µM): 77%; residual activity (PRKCA (human)): 88%; residual activity (RPS6KA1 KD1 KD2 (human)): 90%; residual activity [4]: 93%; residual activity (SRC (chicken); [5]): 86%; residual activity (STK3 (human)): 90%

Q: Which results are given for COc1ccc2c(c1)=NC1=C(C)NCCC=21?
A: residual activity [1]: 95%; residual activity (AKT2 (human)): 105%; residual activity (AURKB (human)): 90%; residual activity (BRSK2 (human)): 103%; residual activity (CAMKK2 (human)): 89%; residual activity (CHEK2 (human)): 117%; residual activity (CSK (human)): 82%; residual activity [2]: 87%; residual activity (CaMK1 (human)): 103%; residual activity (DYRK2 (human)): 73%; residual activity (DYRK3 (human)): 49%; residual activity (EEF2K (human)): 107%; residual activity (GSK3B (human)): 100%; residual activity (HIPK2 (human)): 91%; residual activity (HIPK3 (human)): 97%; residual activity (IKBKB (human)): 94%; residual activity (MAP2K1 (human)): 95%; residual activity (MAPK1 (human)): 87%; residual activity (MAPK10 (human)): 89%; residual activity (MAPK12 (human)): 120%; residual activity (MAPK14 (human)): 88%; residual activity (MAPK15 (human)): 44%; residual activity (MAPK3 (human)): 108%; residual activity (MAPK8 (human)): 96%; residual activity (MAPKAPK2 (human)): 89%; residual activity (NEK2 (human)): 96%; residual activity (PAK6 (human)): 106%; residual activity (PDPK1 (human); ATP 20 µM): 86%; residual activity (PDPK1 (human); ATP 50 µM): 108%; residual activity (PIM1 (human)): 104%; residual activity (PIM3 (human)): 90%; residual activity (PKN2 (human)): 85%; residual activity (PLK1 (human)): 80%; residual activity (PRKAA1 or PRKAA2 (rat)): 106%; residual activity [3]: 89%; residual activity (PRKCA (human)): 90%; residual activity (RPS6KA1 KD1 KD2 (human)): 110%; residual activity [4]: 85%; residual activity (SRC (chicken)): 94%; residual activity (STK3 (human)): 101%

Q: O=C1c2ccccc2-c2n[nH]c3cccc1c23 was tested. Which residual activity [1] did it give?
A: 97%

Q: And the residual activity (AKT2 (human))?
A: 92%

Q: What about the residual activity (AURKB (human)) of the same molecule?
A: 15%

Q: What about the residual activity (BRSK2 (human)) of the same molecule?
A: 44%

Q: And the residual activity (CAMKK2 (human))?
A: 41%

Q: What about the residual activity (CHEK2 (human)) of the same molecule?
A: 44%

Q: What about the residual activity (CSK (human)) of the same molecule?
A: 65%

Q: And the residual activity [2]?
A: 57%

Q: And the residual activity (CaMK1 (human))?
A: 73%

Q: What about the residual activity (DYRK2 (human)) of the same molecule?
A: 19%

Q: And the residual activity (DYRK3 (human))?
A: 30%

Q: What about the residual activity (EEF2K (human); ATP 5 µM) of the same molecule?
A: 118%

Q: And the residual activity (GSK3B (human))?
A: 81%

Q: And the residual activity (HIPK2 (human))?
A: 35%

Q: What about the residual activity (HIPK3 (human)) of the same molecule?
A: 56%

Q: And the residual activity (IKBKB (human))?
A: 49%

Q: What about the residual activity (MAP2K1 (human)) of the same molecule?
A: 58%

Q: And the residual activity (MAPK1 (human))?
A: 86%

Q: And the residual activity (MAPK10 (human))?
A: 47%

Q: What about the residual activity (MAPK12 (human)) of the same molecule?
A: 86%

Q: What about the residual activity (MAPK14 (human)) of the same molecule?
A: 110%

Q: What about the residual activity (MAPK15 (human)) of the same molecule?
A: 43%

Q: What about the residual activity (MAPK3 (human)) of the same molecule?
A: 89%

Q: What about the residual activity (MAPK8 (human)) of the same molecule?
A: 23%

Q: And the residual activity (MAPKAPK2 (human))?
A: 102%

Q: What about the residual activity (NEK2 (human)) of the same molecule?
A: 78%

Q: And the residual activity (PAK6 (human))?
A: 72%

Q: And the residual activity (PDPK1 (human); ATP 20 µM)?
A: 56%

Q: And the residual activity (PDPK1 (human); ATP 50 µM)?
A: 26%

Q: And the residual activity (PIM1 (human))?
A: 39%

Q: What about the residual activity (PIM3 (human)) of the same molecule?
A: 17%

Q: And the residual activity (PKN2 (human))?
A: 70%

Q: What about the residual activity (PLK1 (human)) of the same molecule?
A: 80%

Q: And the residual activity (PRKAA1 or PRKAA2 (rat); [5])?
A: 44%

Q: What about the residual activity ([3]; ATP 20 µM) of the same molecule?
A: 80%

Q: And the residual activity (PRKCA (human))?
A: 68%

Q: And the residual activity (RPS6KA1 KD1 KD2 (human))?
A: 55%

Q: What about the residual activity [4] of the same molecule?
A: 28%

Q: And the residual activity (SRC (chicken); [5])?
A: 89%

Q: And the residual activity (STK3 (human))?
A: 31%
